Data taken from publication PMC3742363 (Chemistry & biology, 2013).
Substitutions are numbered along the chain they refer to.

Legend:
p38δ wt = biological target: T1, p38δ wt (Mus musculus, UniProt Q9Z1B7); assay: Kinetics: activity assay at varied ATP concentrations; assay type: biochemical; conditions: read-out: Km(ATP); activated p38δ wt
T1 sequence (Q9Z1B7 1-366): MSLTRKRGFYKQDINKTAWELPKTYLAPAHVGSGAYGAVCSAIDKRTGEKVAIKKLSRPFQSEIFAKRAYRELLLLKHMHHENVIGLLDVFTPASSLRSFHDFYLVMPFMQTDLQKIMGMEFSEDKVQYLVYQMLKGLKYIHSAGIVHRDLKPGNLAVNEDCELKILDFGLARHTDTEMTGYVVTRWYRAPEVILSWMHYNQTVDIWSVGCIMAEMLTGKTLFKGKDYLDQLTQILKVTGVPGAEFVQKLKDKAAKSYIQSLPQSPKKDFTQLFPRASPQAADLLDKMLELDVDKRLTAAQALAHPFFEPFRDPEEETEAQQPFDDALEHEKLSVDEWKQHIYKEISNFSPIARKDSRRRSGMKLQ

Erk2 Q103A/C164L = Erk2 Q103A/C164L (Rattus norvegicus, UniProt P63086, C164L/Q103A); conditions: read-out: Km(ATP); activated Erk2 Q103A/C164L
Jnk3 wt = Jnk3 wt (Homo sapiens, UniProt P53779); assay: Kinetics: activity assay at varied ATP concentrations; assay type: biochemical; conditions: read-out: Km(ATP); activated Jnk3 wt
Chain of Jnk3 wt (P53779 whole entry): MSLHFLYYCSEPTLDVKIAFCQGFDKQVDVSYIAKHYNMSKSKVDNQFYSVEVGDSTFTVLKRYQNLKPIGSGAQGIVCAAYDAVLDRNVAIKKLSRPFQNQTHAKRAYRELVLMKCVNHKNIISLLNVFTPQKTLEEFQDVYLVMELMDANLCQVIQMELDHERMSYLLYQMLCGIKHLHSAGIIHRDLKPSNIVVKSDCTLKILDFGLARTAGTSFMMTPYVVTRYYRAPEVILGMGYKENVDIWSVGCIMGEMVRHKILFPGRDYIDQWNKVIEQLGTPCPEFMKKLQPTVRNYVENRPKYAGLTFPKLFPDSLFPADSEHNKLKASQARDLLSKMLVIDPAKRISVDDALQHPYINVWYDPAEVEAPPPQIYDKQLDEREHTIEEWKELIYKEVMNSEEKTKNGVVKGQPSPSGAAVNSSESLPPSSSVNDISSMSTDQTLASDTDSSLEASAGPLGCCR

p38α wt [1] = biological target: T2, p38α wt (Mus musculus, UniProt P47811); assay: as above; assay type: biochemical; conditions: read-out: Km(ATP); activated p38α wt
T2 sequence (P47811 whole entry): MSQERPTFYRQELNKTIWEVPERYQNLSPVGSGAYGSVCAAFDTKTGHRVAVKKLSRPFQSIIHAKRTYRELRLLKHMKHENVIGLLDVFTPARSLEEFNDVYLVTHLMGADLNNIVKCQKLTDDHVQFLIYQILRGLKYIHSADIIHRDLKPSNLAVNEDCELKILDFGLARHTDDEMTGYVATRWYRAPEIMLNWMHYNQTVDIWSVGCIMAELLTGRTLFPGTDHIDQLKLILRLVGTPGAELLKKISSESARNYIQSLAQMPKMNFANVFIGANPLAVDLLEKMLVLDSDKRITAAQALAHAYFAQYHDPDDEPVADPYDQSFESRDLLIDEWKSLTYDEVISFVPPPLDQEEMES

Erk2 wt = Erk2 wt (Rattus norvegicus, UniProt P63086); conditions: read-out: Km(ATP); activated Erk2 wt
p38δ M107T = biological target: T3, p38δ M107T (Mus musculus, UniProt Q9Z1B7, M107T); assay: Kinetics: activity assay at varied ATP concentrations; assay type: biochemical; conditions: read-out: Km(ATP); activated p38δ M107T
T3 sequence (Q9Z1B7 1-366 M107T): T1 sequence (Q9Z1B7 1-366) with M107T

p38α T106Q [2] = biological target: T4, p38α T106Q (Mus musculus, UniProt P47811, T106Q); assay: as above; assay type: biochemical; conditions: read-out: Km(ATP); activated p38α T106Q; rate of reaction maintained linearity as high as 1000 μM ATP
T4 sequence (P47811 whole entry T106Q): as the sequence (P47811 whole entry) above, with T106Q counted along it

Jnk3 M146I = Jnk3 M146I (Homo sapiens, UniProt P53779, M146I); assay: as above; assay type: biochemical; conditions: read-out: Km(ATP); activated Jnk3 M146I
Chain of Jnk3 M146I (P53779 whole entry M146I): as the sequence (P53779 whole entry) above, with M146I counted along it

Erk2 Q103T = Erk2 Q103T (Rattus norvegicus, UniProt P63086, Q103T); conditions: read-out: Km(ATP); activated Erk2 Q103T
Erk2 Q103T/C164L = Erk2 Q103T/C164L (Rattus norvegicus, UniProt P63086, C164L/Q103T); conditions: read-out: Km(ATP); activated Erk2 Q103T/C164L
p38α T106Q [3] = biological target: T4, p38α T106Q; assay: Kinase activity assay; assay type: biochemical
p38α wt [4] = biological target: T2, p38α wt; assay: Kinase activity assay; assay type: biochemical

Nc1ncnc2c1ncn2[C@@H]1O[C@H](COP(=O)(O)OP(=O)(O)OP(=O)(O)O)[C@@H](O)[C@H]1O [ATP]
Km (p38δ wt): 91 ± 6 µM
Km (Erk2 Q103A/C164L): 137 ± 6 µM
Km (Jnk3 wt): 8.3 ± 0.6 µM
Km (p38α wt [1]): 229 ± 16 µM
Km (Erk2 wt): 120 ± 10 µM
Km (p38δ M107T): 380 ± 40 µM
Km (p38α T106Q [2]): > 1000 µM
Km (Jnk3 M146I): 66 ± 3 µM
Km (Erk2 Q103T): 83 ± 5 µM
Km (Erk2 Q103T/C164L): 180 ± 20 µM

Cc1ccc(C(=O)Nc2ccc(CN3CCN(C)CC3)c(C(F)(F)F)c2)cc1C#Cc1cnc2cccnn12 [L1, Iclusig]
Ki (p38α T106Q [3]): 3700 ± 400 nM
Ki (p38α wt [4]): 8.1 ± 0.2 nM
